Experimental data taken from US20090012136A1, “UNIT DOSE FORMULATIONS AND METHODS OF TREATING AND PREVENTING THROMBOSIS WITH THROMBOXANE RECEPTOR ANTAGONISTS” (PORTOLA PHARMACEUTICALS, INC., priority 2007, published 2009).

Key:
platelets [1] = assay: Arachidonic acid-induced platelet aggregation LTA (Example 2); type: cell-based, human; settings: all three tested doses (1 μM, 350 nM, 100 nM); healthy volunteers and AERD patients; FIGS. 7A and 7B
Procedure: (§1) Light transmittance aggregometry (LTA) assays were performed by standard procedures, initiating platelet aggregation with collagen or arachidonic acid.
(§2) Assays were performed pre- (+/−ifetroban, spiked in vitro) and post-aspirin desensitization.

platelets [2] = assay: Collagen-induced platelet aggregation LTA, healthy volunteers and AERD patients (Example 2); type: cell-based, human; settings: for anti-aggregatory activity in collagen-induced platelet aggregation assay: FIG. 5
Procedure: as §1, §2

platelets [3] = assay: Collagen-induced platelet aggregation by light transmittance aggregometry (LTA) in PRP (Example 1); type: cell-based, human
Procedure: (§3) Blood from healthy individuals (n=6-7) was obtained by venipuncture and anticoagulated with FXa inhibitor. Platelet rich plasma (PRP) was obtained, and LTA was performed by standard procedures, initiating platelet aggregation with U-46619 (10 μM) or collagen (4 μg/ml).
LTA was performed on PRP samples using collagen (4 micrograms/ml) to induce platelet aggregation.

platelets [4] = assay: Real time perfusion chamber assay, blood perfused through collagen-coated capillaries (Example 1); type: cell-based, human; settings: non-aspirinated blood, ifetroban added in vitro; aspirin 325 mg per day for 2 weeks; FIG. 3
platelets [5] = assay: Real time perfusion chamber assay (RTTP), healthy volunteers and AERD patients (Example 2); type: cell-based, human; settings: 100 nM or 350 nM spiked in vitro
Procedure: Real time perfusion chamber assays (RTTP) were performed using blood anticoagulated with Fxa inhibitor (10 uM 034) and perfused through collagen-coated capillaries (1100/sec). Thrombus formation on the collagen surface was monitored in real time using fluorescence microscopy to detect fluorescently labeled (R6G) platelets.
as §2

platelets [6] = assay: U-46619-induced platelet aggregation by light transmittance aggregometry (LTA) in PRP; type: cell-based, human
Procedure: as §3

[7] = hundreds of randomized clinical trials; BMJ 324:71-86 (2002); cited from earlier work

| SMILES | effect on arachidonic acid-induced platelet aggregation (platelets [1]) | anti-aggregatory activity in collagen-induced platelet aggregation assay (platelets [2]; AERD patients) | concentration reproducing aspirin effects on collagen-induced platelet aggregation and thrombosis (platelets [2]; AERD patients, FIG. 5B) [nM] | concentration showing statistically significant inhibition of collagen-induced platelet aggregation (platelets [2]; AERD patients, FIG. 5B) [nM] | inhibition of platelet aggregation compared with aspirin (platelets [2]; healthy volunteers, 100 nM ifetroban) | anti-aggregatory activity in collagen-induced platelet aggregation assay (platelets [2]; healthy volunteers) | concentration showing statistically significant inhibition of collagen-induced platelet aggregation (platelets [2]; normal volunteers (P=0.0281), FIG. 5A) [nM] | concentration reproducing aspirin effects on collagen-induced platelet aggregation and thrombosis (platelets [2]; normal volunteers, FIG. 5A) [nM] | concentration in collagen-induced assay relative to that predicted by U-46619-induced assay (platelets [3]; 350 nM v. 30 nM) | concentration for maximum inhibition of collagen-induced platelet aggregation (platelets [3]; collagen 4 μg/ml, non-aspirinated PRP, ifetroban added in vitro, FIG. 2) | amount required to inhibit collagen-induced versus U-46619-induced platelet aggregation (platelets [3]; collagen versus U-46619) | concentration providing equivalent or superior inhibitory activity on thrombosis as aspirin (platelets [4]) [nM] | antithrombotic activity in perfusion chamber assay (platelets [5]; AERD patients, FIG. 4B) | antithrombotic activity in perfusion chamber assay (platelets [5]; healthy volunteers, FIG. 4A) | concentration that fully inhibited U-46619-induced platelet aggregation (platelets [6]; U-46619 10 μM, PRP anticoagulated with FXa inhibitor, ifetroban added in vitro, FIG. 2) [nM] | concentration predicted by U-46619-induced platelet aggregation assays (platelets [6]; U-46619-induced platelet aggregation) [nM] | reduction in adverse events [7] | reduction of the extent of collagen-induced platelet aggregation v. baseline (mean+sem) (platelets [3]; twenty healthy individuals, aspirin 325 mg/day for two weeks, collagen 4 micrograms/ml, PRP) |
| --- | --- | --- | --- | --- | --- | --- | --- | --- | --- | --- | --- | --- | --- | --- | --- | --- | --- | --- |
| CCCCCNC(=O)c1coc([C@H]2[C@@H](Cc3ccccc3CCC(=O)[O-])[C@@H]3CC[C@H]2O3)n1.[Na+] [ifetroban, [1S-(1α,2α,3α,4α)]-2-[[3-[4-[(pentylamino)carbonyl]-2-oxazolyl]-7-oxabicyclo[2.2.1]hept-2-yl]methyl]benzenepropanoic acid] | fully blocked | significant anti-aggregatory activity | > 100 | > 100 | significantly lower inhibition of platelet aggregation than aspirin | significant anti-aggregatory activity | > 100 | > 100 | approximately 10 times | greater than or equal to 350 nM | approximately 10 fold | ≥ 300 | significant antithrombotic activity | significant antithrombotic activity | > 30 | 30 |  |  |
| CC(=O)Oc1ccccc1C(=O)O [aspirin] |  |  |  |  |  |  |  |  |  |  |  |  |  |  |  |  | 20-25% | 39+/−6.0% |
